The values that follow come from US7691567B2, “Methods and compositions relating to fortilin, an anti-apoptotic molecule, and modulators of fortilin” (Board of Regents, the University of Texas System, priority 2000, dated 2010).

For data set [1], the system named is caspase 3-like activity. Put plainly: Assay of caspase 3-like activity in U2OS stable transfectants (Z-DEVD-AFC). The data set is classed as cell-based. The method, then: Assay of caspase 3-like activity. Approximately 2×10^6 U2OS stable transfectants, either expressing Fortilin (U2OS.F) or harboring empty expression vector (U2OS.E), both of which have been characterized above, were challenged either with dimethyl sulfoxide (DMSO) (vehicle) or with etoposide at a final concentration of 10 μg/mL for 48 hours. Caspase 3-like activity was then determined as previously described (Mannick et al., 1999). In brief, cytosolic proteins were extracted in hypotonic cell lysis buffer (25 mM HEPES, pH 7.5, 5 mM MgCl2, 5 mM EDTA, 5 mM dithiothreitol, 0.05% phenylmethylsulfonyl fluoride [PMSF]; all from Sigma) by three cycles of freezing and thawing. The protein concentration of samples was determined by using a BioRad Bradford protein assay kit (BioRad). Ten micrograms of cytosolic extracts were added to caspase assay buffer (312.5 mM HEPES, pH 7.5, 31.25% sucrose, 0.3125% CHAPS) with Z-DEVD-AFC as substrates (CalBiochem, San Diego, Calif.). Release of 7-amido-4-(trifluoromethyl)coumarin (AFC) was quantified, after 2 hours of incubation at 37° C. (or, in the case of time course experiment, every 10 minutes), using a Fluoroskan system (Thermo-Labsystems, Helsinki, Finland) set to an excitation value of 355 nm and emission value of 525 nm. The results were expressed as relative fluorescence unit (R.F.U.) per microgram of protein.

The subject of data set [2] is U2OS cells. The data set can be described thus: Bax-mediated apoptosis in transfected U2OS cells (apoptotic index). Particulars: for prevention of Bax mediated apoptosis (apoptotic index): U2OS cells cotransfected with Bax-pcDNA3, thirty hours after transfection. The data set is classed as cell-based. The method, then: The amount of LacZ-pFLAG was 1/10 to 1/20 (w/w) of total amounts of DNA added. Thirty hours after the transfection, cells were stained with X-gal. Blue cells represented cells expressing Bax, β-galactosidase and indicated proteins in question. At least 300 blue cells were counted and evaluated for plasma membrane morphology. Rounded cells were counted as apoptotic. Apoptotic index was calculated as the number of blue apoptotic cells divided by the number of total blue cells counted, expressed in percentage. Without the expression of Bax, there was a modest amount of background cell death noted (Lane 6). On the other hand, the presence of Bax caused 2 holds increase in the number of apoptotic cells (Lane 5). […] Taken together, the ability of Fortilin to inhibit Bax mediated apoptosis is mediated by its interaction with MCL1.

In data set [3] the test system is H1299 cells. Put plainly: p53-mediated apoptosis in transfected H1299 cells (apoptotic index). The data set is classed as cell-based. The following applies: overexpression, thirty hours after transfection. The method, then: Because wild-type p53 can induce apoptosis, the ability of Fortilin to prevent or inhibit p53-mediated apoptosis was examined. H1299 cells were transfected with indicated combinations of mammalian expression constructs. Thirty hours after the transfection, cells were fixed and stained for beta-galactosidase activities. Cells that were round in shape with significant membrane irregularity were counted as apoptotic (FIG. 5). Apoptotic index was calculated as (Blue cells with apoptotic plasma membrane morphology)/(Total blue cells counted)×100.

Data set [4] relates to HeLa cells. The data set can be described thus: Cell death assay: etoposide-induced apoptosis in transfected HeLa cells (apoptotic index). The data set is classed as cell-based. Particulars: HeLa cells overexpressing FLAG-tagged protein; 5 μg/mL etoposide 12 hours. The method, then: Cell death assay: The experiment was performed in duplicate and repeated at least three times. A total of […] HeLa cells were seeded in each well of a 4-well Lab-Teck™ chamber slides (Nalge Nunc International), and transfected with pFLAG containing Fortilin or other control cDNAs, using FuGENE6 (Roche). Twenty-four hours after the transfection, the cells were challenged by 5 μg/mL etoposide for 12 hours. Cells were stained for the FLAG-epitope using anti-FLAG antibody (M2, Sigma Co) and anti-mouse IgG conjugated to Rhodamine Red X (Jackson ImmunoResearch Laboratories). The nuclei were stained with DAPI (4,6-Diamidino-2-phenylindole, Sigma Co). Cells were then examined under a Zeiss AXIOSKOP fluorescent microscope (Carl Zeiss Ltd.), using appropriate filter sets. Cells that emitted red fluorescence were evaluated for their nuclear morphology. Condensed or fragmented nuclei were counted as apoptotic. An apoptotic index was then calculated as the number of red cells with apoptotic nuclear morphology divided by the number of total red cells counted and multiplied by 100.
Statistical analysis: For the analysis of statistical significance of apoptotic indices among cells transfected with different plasmids, Dunnett's T tests were performed. In all cases, the confidence intervals were 0.95 with the alpha value of 0.05. For the statistical evaluation of the significant linear trend between the amount of plasmids used for the transfection and apoptotic indices, ANOVA (Analysis of Variance) regression analysis was employed. […] For the analysis of statistical significance of possible correlation between the degree of malignancy and the indices of Fortilin immunoreactivity, Dunnett's multiple range tests were performed.

Data set [5] relates to p53 transactivation of Bax gene. The data set can be described thus: p53 transactivation of Bax gene, p-Bax-RE-Luc luciferase reporter in H1299 cells. The following applies: twenty-four hours after transfection. The data set is classed as cell-based. The method, then: The ability of Fortilin to interfere with transactivation of the Bax gene by p53 was investigated. Non-small cell lung cancer cell line H1299 cells were transfected with p53-pcDNA3, LacZ-pFLAG, p-Bax-RE-Luc (a plasmid encoding the Luciferase gene under the control of the Bax responsive element) and pFLAG vector encoding Bcl-2, MCL1, Fortilin or truncated Fortilin as indicated in FIG. 6. Twenty-four hours after the transfection, luciferase activity was measured and normalized to the β-galactosidase activity, the latter representing transfection efficiency.
Next, studies were conducted to determine whether the inhibition was dosage dependent. H1299 cells were transfected with p53-pcDNA3, LacZ-pFLAG, p-Bax-RE-Luc and various amount of Fortilin-pFLAG. The total amount of DNA added was adjusted by the addition of empty pFLAG vector. Twenty-four hours after the transfection, luciferase activity was measured and normalized to the β-galactosidase activity.
(Reporter assays use an easily measured gene product as a stand-in for the process of interest.)

Data set [6] concerns U2OS cells. The following applies: U2OS stable transfectants of HA-tagged Fortilin or deletion mutants, 5 μg/mL etoposide 48 hours.
From the text: Generation and characterization of U2OS cells stably expressing Fortilin. U2OS cells were transfected with empty pcDNA6, a mammalian expression vector containing a blasticidine resistance gene (Invitrogen, Carlsbad, Calif.), or with pcDNA6 vector encoding wild-type Fortilin, by using FuGENE6 (Roche Molecular Biochemicals) according to the manufacturer's instructions. Transfected cells were selected for approximately 3 weeks and characterized by Western blot analysis. For the cytotoxicity assay, U2OS cells stably expressing wild-type Fortilin (U2OS.F) and U2OS cells stably harboring empty pcDNA6 (U2OS.E) were seeded in a 96 well plate in quadruplicate. For the investigation of dose response, cells were challenged with various concentrations of etoposide (0-20 μg/mL) for 48 hours. For the time course study, cells were challenged with 5 μg/mL of etoposide and harvested after various incubation periods (0-96 hours). In both cases, the cell media were assayed for the lactate dehydrogenase (LDH) activity released from the cytosol of damaged cells, using a cytotoxicity detection kit (Roche Molecular Biochemicals) according to the manufacturer's instructions. The cytotoxicity index was calculated as follows: (LDH activity in the media−background LDH activity)÷(LDH activity in the medium of cells lysed by 1% Triton X-100−background LDH activity)×100.
Cell death assay. U2OS cells stably expressing Fortilin or its mutants were seeded in 96-well plates in triplicate. Cells were then challenged with 5 μg/mL of etoposide (Sigma) for 48 hours. Then the cell media were assayed for the lactate dehydrogenase (LDH) activity released from the cytosol of damaged cells, using a Cytotoxicity Detection Kit (Roche Molecular Biochemicals), according to the manufacturer's instructions. The cytotoxicity index was calculated as follows: (LDH activity in the media−background LDH activity)/(LDH activity in the medium of the cells lysed by 1% Triton X-100−background LDH activity)×100.
Statistical analysis. For analysis of the statistical significance of differences in cytotoxicity indices among cells stably transfected with Fortilin, its mutants or control plasmids, Student's t-test was performed using a commercial software (Minitab Inc., State College, Pa.). In all cases, a P-value less than 0.05 was considered to be statistically significant.

Entries after “also recorded” stand apart in the source; their conditions may differ. Read-outs that look alike come from different tables or passages of the source.

`COc1cc([C@@H]2c3cc4c(cc3[C@@H](O[C@@H]3O[C@@H]5CO[C@@H](C)O[C@H]5[C@H](O)[C@H]3O)[C@H]3COC(=O)[C@H]23)OCO4)cc(OC)c1O` [etoposide, reference compound] registered a caspase-3-like activity index in data set [1] (control U2OS.E cells (empty vector), etoposide 10 μg/mL 48 hours) of 1488.1±58.7 R.F.U./μg protein. In addition, the “increase in caspase-3-like activity” value in data set [1] (control U2OS.E cells, etoposide challenge vs no etoposide) is given as 9.4 fold.
In the case of “Bax: pro-apoptotic protein expressed from Bax-pcDNA3 to induce apoptosis [reference compound]”, the “increase in the number of apoptotic cells” value in data set [2] (U2OS cells, Bax expression versus without Bax) stood at 2 holds.
For the molecule “Bcl-2: anti-apoptotic protein overexpressed as comparator [reference compound]”, the “suppression of p53 induced apoptosis (apoptotic index)” value (“suppression … (apoptotic index)” below) in data set [3] was “statistically significant (p<0.001) suppression of p53-induced apoptosis; also recorded: statistically significant (p<0.001) suppression of p53 induced apoptosis”.
Take “Bcl-xL: a Bcl-2 family protein, overexpressed as anti-apoptotic comparator”: the “prevention of Etoposide-induced apoptosis (apoptotic index)” value in data set [4] was “prevented HeLa cells from undergoing Etoposide-induced apoptosis in a statistically significant fashion”.
On to “MCL1: Myeloid Cell Leukemia 1, a Bcl-2 homologue, anti-apoptotic protein [reference compound]”, for which the “inhibition of p53 transactivation of Bax gene (luciferase normalized to β-galactosidase)” value in data set [5] was “inhibited p53 transactivation of the Bax gene”. Besides, in data set [3], the “suppression … (apoptotic index)” value is “statistically significant (p<0.001) suppression of p53-induced apoptosis; also recorded: statistically significant (p<0.001) suppression of p53 induced apoptosis”. Besides, the “prevention of Bax mediated apoptosis (apoptotic index)” value in data set [2] is “prevented cells from undergoing Bax mediated apoptosis”. In addition, the “prevention of Etoposide-induced apoptosis (apoptotic index)” value in data set [4] is on record as “prevented HeLa cells from undergoing Etoposide-induced apoptosis in a statistically significant fashion”.

B1: FortilinΔ46-172: Fortilin deletion mutant that lacks 26% of wild type Fortilin (protein)
chain: SLIGGNASAEGPEGEGTESTVITGVDIVMNHHLQETSFTKEAYKKYIKDYMKSIKGKLEEQRPERVKPFMTGAAEQIKHILANFKNYQFFIGENMNPDGMVALLDYREDGVTPYMIFFKDGLEMEKC
modifications: left off: small tags and cut ends
notes: Fortilin deletion mutant that lacks 26% of wild type Fortilin
In the case of B1, the “cytotoxicity index relative to control transfectants” value is “significantly lower than the cytotoxicity index of control cells” in data set [6] and “still capable of protecting cells, albeit modestly, from etoposide-induced cell death” in data set [6] (listed as FortilinΔ45-172).

B2: FortilinΔ23-172: mutant of Fortilin representing 23rd-172nd amino acids of Fortilin (protein)
chain: IADGLCLEVEGKMVSRTEGNIDDSLIGGNASAEGPEGEGTESTVITGVDIVMNHHLQETSFTKEAYKKYIKDYMKSIKGKLEEQRPERVKPFMTGAAEQIKHILANFKNYQFFIGENMNPDGMVALLDYREDGVTPYMIFFKDGLEMEKC
In the case of B2, the “inhibition of p53 transactivation of Bax gene (luciferase normalized to β-galactosidase)” value in data set [5] (listed as truncated Fortilin (23-172)) is listed as “inhibited p53 transactivation of the Bax gene”. Besides, in data set [3] (listed as Fortilin(23-172)), the “suppression … (apoptotic index)” value is listed as “did not significantly prevent p53-mediated apoptosis; also recorded: did not significantly prevent p53 mediated apoptosis”. Also, the “prevention of Bax mediated apoptosis (apoptotic index)” value in data set [2] was “failed to prevent cells from undergoing Bax mediated apoptosis”. Further, the “cytotoxicity index relative to control transfectants” value in data set [6] is “could not prevent cells from undergoing etoposide-induced cell death and instead sensitized the cells to etoposide-induced cell death”; in data set [6] (listed as fortilinΔ23-172) it was “significantly higher than that of control cells”.
